From patent US20250085295A1, “METHODS FOR MEASURING INTERACTIONS BETWEEN PROTEINS COMPRISING AN FC PORTION AND PARTICLES” (NANOTEMPER TECHNOLOGIES GMBH, priority 2023, published 2025)

Columns and labels:
[1] = target: IgG antibody; settings: literature DOI cited; read-out: affinity of Fc-binding peptide to IgG antibody; cited from earlier work
[2] = target: IgA antibody; settings: literature DOI cited; read-out: affinity of Fc-binding peptide to IgA antibody; cited from earlier work
[3] = target: Trastuzumab; assay: Spectral shift (SpS, 670/650 nm ratio) dose-response of fluorescent peptide tracer vs Trastuzumab; type: binding; settings: for binding affinity of fluorescent peptide to Trastuzumab, spectral shift response (SpS): 2.4 nM peptide, Trastuzumab dilution series up to 2062.5 nM, excitation 591 nm, 650/670 nm, FIGS. 1 and 2
Procedure: (§1) The fluorescent peptide tracer was dissolved in 100% DMSO to obtain stock solutions of 2.4 mM for FcIII and FcT. Subsequently, 16 or 24 point 1-to-1 dilution series of unlabeled Trastuzumab antibodies with stock concentrations of 825 µM were prepared leading to final assay concentrations of 2062.5 nM for Trastuzumab and a FCT and FcIII concentration of 2.4 nM. Samples were loaded into Dianthus 384-well plates (DI-P001A, NanoTemper Technologies) or polymer-coated borosilicate glass capillaries (Monolith NT.115 Premium Capillaries, MO-K025, NanoTemper Technologies). Measurements were taken with Nano Temper Software (MO.Control 2, DI.Control) by excitation at 591 nm and recording of fluorescence traces at 650 nm and 670 nm. For results showing TRIC results, simultaneous induction heat via an IR laser was induced and the thermophoretic behavior recorded for 5s.
To evaluate the importance of the right affinity for this labeling approach, also a fluorescent peptide tracer was designed based on previously published findings based on a combinatorial tetrapeptide library (Camperi et al., Biotechnol Lett (2003), 25:1545-1548). To this end, the tetrapeptide APAR, which was previously found to bind to Immunoglobulin G was synthesized with an N-terminal lysine to accommodate further conjugation with Cy5 dye. The resulting fluorescent peptide tracer Cy5-KAPAR (cf. SEQ ID NO: 9) was dissolved in 100% DMSO to obtain stock solutions of 4.96 mM. The stock solution was further diluted in PBS-P. Subsequently 24 point 1-to-1 dilution series of unlabeled Trastuzumab antibody with stock concentrations of 825 μM were prepared leading to final assay concentrations of 412 μM for Trastuzumab and a Cy5-KAPAR (cf. SEQ ID NO: 9) concentration of 2.5 nM. Samples were loaded into Dianthus 384-well plates (DI-P001A, NanoTemper Technologies). Measurements were taken with Nano Temper Software (DI.Control) by excitation at 591 nm and recording of fluorescence traces at 650 nm and 670 nm. […] Such affinities result in required assay concentrations of over 100 μM in ligand-binding assays, which can hardly be achieved due to antibody solubility and availability. Furthermore, only affinities lower than the used concentration of antibody could reliable be determined, severely limiting the approach.

[4] = target: Trastuzumab; assay: TRIC signal at 670 nm, dose-response of fluorescent peptide tracer vs Trastuzumab; type: binding; settings: 2.4 nM peptide, Trastuzumab dilution series, IR laser heating 5 s, FIGS. 3 and 4
Procedure: as §1

[5] = target: T1, Her2/ERBB2 Protein, Human, Recombinant (ECD, His Tag) (Homo sapiens, UniProt P04626); assay: Interaction of Her2 with labeled Trastuzumab in spectral shift (SpS); type: binding; settings: 4 nM Trastuzumab, 2.4 nM tracer, Her2 up to 220 nM; FIGS. 5 and 7
T1 construct: Her2/ERBB2 Protein, Human, Recombinant (ECD, His Tag); His tag; purchased Sino Biological 10004-H08H
Procedure: (§2) The fluorescent peptide tracer was dissolved in 100% DMSO to obtain stock solutions of 2.4 mM for FcIII and FcT. Peptide tracers were mixed with 8 nM Trastuzumab and incubated for 15 min. Subsequently, 16 or 24 point 1-to-1 dilution series of Her2 were prepared and mixed 1:1 with prepared peptide: trastuzumab dilution, leading to final assay concentrations of 4 nM for Trastuzumab, 2.4 nM FcT and FcIII, and 220 nM as highest in-assay concentration of Her2. Samples were loaded into Dianthus 384-well plates (DI-P001A, NanoTemper Technologies) or polymer-coated borosilicate glass capillaries (Monolith NT.115 Premium Capillaries, MO-K025, NanoTemper Technologies). Measurements were taken with Nano Temper Software (MO.Control 2, DI.Control) by excitation at 591 nm and recording of fluorescence traces at 650 nm and 670 nm. For results showing TRIC results, simultaneous heat via an IR laser was induced and the thermophoretic behavior recorded for 5s.
(§3) For NHS labeling of Trastuzumab, NHS labeling kit 2nd generation (NanoTemper Technologies) was used. In short, Trastuzumab was exchanged into NHS labeling buffer and mixed with NHS-NTT dye. After incubation in the dark for 30 min, unreacted dye was separated using a B-column provided with the kit. Eluting fractions containing 2.5 µM labeled Trastuzumab were collected and stored at −80° C.

[6] = target: T1, Her2/ERBB2 Protein, Human, Recombinant (ECD, His Tag); assay: Interaction of Her2 with labeled Trastuzumab in TRIC 670 nm; type: binding; settings: 4 nM Trastuzumab, 2.4 nM tracer, Her2 up to 220 nM; FIGS. 6 and 8
Procedure: as §2, §3

[7] = Thermal unfolding analysis using Fc-peptide labeling (670/650 nm ratio, first derivative); type: physicochemical; settings: free FcIII without antibody, heating 1° C./min; FIG. 14A, 14B
Procedure: The fluorescent peptide tracer was dissolved in 100% DMSO to obtain stock solutions of 2.4 mM for FcIII. […] Samples were loaded into capillaries, excited at 591 nm and fluorescence was recorded at 650 and 670 nm. Samples were heated a rate of 1° C./min while recording fluorescence signals.

Substance: CDCAWHLGELVWCTC [Fc-III-4C]
- Kd [1]: 2.5 nM

Substance: DCAWHLGELVWCT [Fc-III]
- Kd [1]: 16 to 25 nM

Substance: HQVCLSYRGRPVCFST
- Kd [2]: 72 nM

Substance: KHRFNKD
- Kd [1]: 20 nM

Substance: L-Pro DCAWHLGELVWCT D-Pro [FcBP2]
- Kd [1]: 1.8 nM

Substance: RRGW
- Kd [1]: 0.5 nM

Substance: [Cyc(2,12)]Cy5-DCAWHLGELVWCT-NH2 [FcIII]
- binding affinity of fluorescent peptide to Trastuzumab, spectral shift response (SpS) [3]: Clear binding with nanomolar affinities
- binding affinity of fluorescent peptide to Trastuzumab, TRIC [4]: Clear binding with nanomolar affinities
- binding of Her2 to Trastuzumab labeled with the peptide tracer, spectral shift dose-response [5]: clearly show the binding of Her2
- binding of Her2 to Trastuzumab labeled with the peptide tracer, TRIC signal dose-response [6]: clearly show the binding of Her2
- thermal profile, unfolding events in the first derivative [7]: no distinct unfolding events

Substance: [Cyc(2,12)]NTTred-DCAWHLGELVWCT-OH [FcT]
- binding affinity of fluorescent peptide to Trastuzumab, spectral shift response (SpS) [3]: Clear binding with nanomolar affinities
- binding affinity of fluorescent peptide to Trastuzumab, TRIC [4]: Clear binding with nanomolar affinities
- binding of Her2 to Trastuzumab labeled with the peptide tracer, spectral shift dose-response [5]: clearly show the binding of Her2
- binding of Her2 to Trastuzumab labeled with the peptide tracer, TRIC signal dose-response [6]: clearly show the binding of Her2

Substance: low affinity fluorescent peptide tracer, tetrapeptide APAR with N-terminal lysine conjugated with Cy5 (cf. SEQ ID NO: 9) [Cy5-KAPAR, Cy5-KAPAR-OH]
- ratiometric change in the 670/650 nm fluorescence upon binding of Trastuzumab ([3]; 2.5 nM Cy5-KAPAR, Trastuzumab up to 412 μM): large ratiometric change
- Kd ([3]; 2.5 nM Cy5-KAPAR, Trastuzumab up to 412 μM, spectral shift 670/650 nm, read-out: affinity to Trastuzumab (estimated, saturation not reached)): > 60000 nM
